By Ki is commonly meant the dissociation constant of the complex between target and ligand, obtained from inhibition or displacement.

Bridge positions count the residues as written; N and C are the ends. Peptide text beside a SMILES is read from it.

The text below walks through data of publication PMC10107917 (ACS Medicinal Chemistry Letters, 2023).

The target in assay [1] is T1, matriptase-1 (MT1) (Homo sapiens, UniProt Q9Y5Y6).
T1 construct: Recombinant human matriptase-1/ST14 catalytic domain; purchased R&D Systems, USA
T1 sequence (Q9Y5Y6 615-854 limits assumed): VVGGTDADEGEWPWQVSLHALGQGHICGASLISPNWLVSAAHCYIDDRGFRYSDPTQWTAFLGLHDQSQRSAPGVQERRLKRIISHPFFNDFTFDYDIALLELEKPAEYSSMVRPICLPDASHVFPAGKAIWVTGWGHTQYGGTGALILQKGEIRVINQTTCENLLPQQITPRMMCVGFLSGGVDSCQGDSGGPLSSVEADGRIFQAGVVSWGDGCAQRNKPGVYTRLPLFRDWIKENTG
As to the kind of experiment: Selectivity assay against matriptase-1. The format is biochemical. The settings on record: Figure S1. On the procedure: The selectivities of the strongest furin inhibitors 3, 5, 6, and FI were assessed using commercially available, purified, recombinant proteases, namely, matriptase-1 (MT1) and matriptase-2 (MT2). Both enzymes belong to the type II transmembrane serine proteases, present trypsin-like specificity, and share high structural similarity but differ in biological activity.[33] […]
The IC50 values (inhibitor concentrations giving 50% inhibition of enzyme activity) were calculated from plots of enzyme activity (% of control sample) versus the inhibitor’s concentration using a four-parameter fit model (GraFit 5.0.12 Erithacus Software Ltd.). The IC50 values were determined from triplicate measurements with at least seven different inhibitor concentrations. The K i values […] were calculated using the Cheng-Prusoff equation, assuming the competitive mode of inhibition, according to the following relationship: IC50 = K i(1+S/Km). All measurements were performed using a Fluostar Omega microplate reader (BMG Labtech, Germany) and 96-well black plates (BRAND, Germany). Recombinant human matriptase-1/ST14 catalytic domain was purchased from R&D Systems, USA. Recombinant human matriptase-2 was obtained from Enzo Life Sciences, Switzerland.
Soluble human recombinant furin was kindly gifted by Dr Anna Kwiatkowska (group of Prof. Robert Day from Université de Sherbrooke).4
The following assay buffers were used: […] (matriptase-1 and matriptase-2), pH 7.5 100 mM HEPES with 1 mM CaCl 2 and 1.8 mg/mL BSA (furin). The substrates used in the assays were as follows: for matriptase-1 and matriptase-2 Boc-Gln-Ala-Arg-AMC (Pepta Nova, Germany) in final concentration of 5 µM, for furin […] (Pepta Nova, Germany) in final concentration of 20 µM. Enzymes concentrations were as follows: 1.25 ng/mL of matriptase-1, 1.51 U/mL for matriptase-2, and 1.1 nM for furin. In the case of matriptase-1 and matripase-2 concentrations were calculated according to information provided by the suppliers.
In short, the tested compounds were added to the appropriate protease in different concentrations and incubated in an assay buffer at 37 °C for 30 min. […] Reactions were monitored for at least 40 min at 37 °C. […] The percentage inhibition of an enzyme was calculated relative to the control sample without an inhibitor. The K m value for furin substrate was determined by incubating the enzyme with its substrate in various concentrations as recommended.5 Plots of the substrate concentration versus the initial reaction velocity were analyzed according to Michaelis-Menten equation using GraFit 5.0.12 Erithacus Software Ltd. A double reciprocal (Lineweaver-Burk) plot was used to determine the Michaelis constant K m value. […]

Assay [2] addresses furin. As to conditions: cited from earlier work.

For the compound `CC[C@H](C)[C@@H]1NC(=O)[C@@H]2CCCN2C(=O)[C@@H]2CCCN2C(=O)[C@H]([C@@H](C)CC)NC(=O)[C@H](CO)NC(=O)[C@H](CCCCN)NC(=O)[C@H](CCCCN)NC(=O)[C@@H](NC(=O)[C@H](CCCNC(=N)N)NC(=O)[C@@H](N)CCCCN)CSSC[C@@H](C(=O)N[C@@H](Cc2ccccc2)C(N)=O)NC1=O` [FI, Lys-Arg-Cys(&)-Lys-Lys-Ser-Ile-Pro-Pro-Ile-Cys(&)-Phe-NH2, reference compound] (H-KRCKKSIPPICF-NH2; disulfide 3-11; N-terminus assumed), the “activity against MT1” value in assay [1] is listed as “not active”. The inhibition constant (Ki) in assay [2] is 0.49 nM.

On to `CC[C@H](C)[C@@H]1NC(=O)[C@@H]2CCCN2C(=O)[C@@H]2CCCN2C(=O)[C@H]([C@@H](C)CC)NC(=O)[C@H](CO)NC(=O)[C@H](CCCCN)NC(=O)[C@H](CCCCN)NC(=O)[C@@H](NC(=O)[C@H](CCCNC(=N)N)NC(=O)[C@H](CCCNC(=N)N)NC(=O)[C@@H](N)CCCNC(=N)N)CSSC[C@@H](C(=O)N[C@@H](Cc2ccccc2)C(N)=O)NC1=O` [inhibitor 3, Arg-Arg-Arg-Cys(&)-Lys-Lys-Ser-Ile-Pro-Pro-Ile-Cys(&)-Phe-NH2] (H-RRRCKKSIPPICF-NH2; disulfide 4-12), for which the “activity against MT1” value in assay [1] is listed as “not active”.

Turning to `CC[C@H](C)[C@@H]1NC(=O)[C@@H]2CCCN2C(=O)[C@@H]2CCCN2C(=O)[C@H]([C@@H](C)CC)NC(=O)[C@H](CO)NC(=O)[C@H](CCCCN)NC(=O)[C@H](CCCCN)NC(=O)[C@@H]2CSSC[C@H](NC1=O)C(=O)N[C@@H](Cc1ccccc1)C(=O)N[C@@H](CCCCN)C(=O)N[C@@H](CCCNC(=N)N)C(=O)N[C@@H](CCCNC(=N)N)C(=O)N2` [inhibitor 5, &^1Lys-Arg-Arg-Cys(&^2)-Lys-Lys-Ser-Ile-Pro-Pro-Ile-Cys(&^2)-Phe&^1] (cyclo(KRRCKKSIPPICF); disulfide 4-12), the “activity against MT1” value in assay [1] is given as “not active”.

For the compound `CC[C@H](C)[C@@H]1NC(=O)[C@@H]2CCCN2C(=O)[C@@H]2CCCN2C(=O)[C@H]([C@@H](C)CC)NC(=O)[C@H](CO)NC(=O)[C@H](CCCCN)NC(=O)[C@H](CCCCN)NC(=O)[C@@H]2CSSC[C@H](NC1=O)C(=O)N[C@@H](Cc1ccccc1)C(=O)N[C@@H](CCCNC(=N)N)C(=O)N[C@@H](CCCNC(=N)N)C(=O)N[C@@H](CCCNC(=N)N)C(=O)N2` [inhibitor 6, &^1Arg-Arg-Arg-Cys(&^2)-Lys-Lys-Ser-Ile-Pro-Pro-Ile-Cys(&^2)-Phe&^1] (cyclo(RRRCKKSIPPICF); disulfide 4-12), the “activity against MT1” value in assay [1] is on record as “not active”.
